Test results reported in patent EP2204398A1, “CA[…] DERIVATIVE AND USES OF THE SAME” (NanoCarrier Co., Ltd., priority 2008, dated 2009).

Columns and labels:
[1] = Test for blood kinetics in rat (CPT concentration in blood plasma by HPLC); type: in vivo, male Wister rat; conditions: tail vein, camptothecin in DMSO, administered in the same manner, n=1
Protocol: In a sample vial, 50 mg of the complex obtained in Example 1 which was weighed precisely was placed, and 1 mL of purified water was added thereto, followed by suspending the polymer. The resulting suspension was stirred for one day and night, and sonicated using Biodisruptor (Nihonseiki Kaisha Ltd., High Power Unit) with ice cooling for 10 minutes, followed by filtration through a 0.22 µm filter (Millipore, MILLEX (registered trademark) GP PES) and recovery of the resulting filtrate. […]
To 30 µL of the collected rat blood plasma, 100 µL of acetonitrile and 20 µL of 10 mM HCl were sequentially added, and the resulting mixture was stirred. […] The filtrate was filled in an HPLC sample vial, and the concentration of free CPT in the blood plasma was determined.
The HPLC conditions were as followed. Unless otherwise specified, the HPLC analysis of CPT was carried out under the same conditions. • System: Waters Alliance System • Column: Tosoh TSK-gel ODS-80TM (Φ4.6 × 150 mm) (40°C) • Mobile phase: 25 mM ammonium formate buffer (pH 3.0)/acetonitrile=70/30 • Flow rate: 1 mL/min. • Detection: fluorescence (Ex: 370 nm, Em: 420 nm) Injection volume: 20 µL

[2] = tested on: Human Prostate Cancer PC-3 Cells; test: Test for pharmacological effect using human prostate cancer PC-3 cells - 1 (tumor volume); type: in vivo, male nude mice; conditions: CPT DMSO solution 7 mg/kg, tail vein, 3 times at intervals of 4 days, n=7
Protocol: (§1) PC-3 cells (purchased from ATCC via Summit Pharmaceuticals International Corporation; which provision is also applied hereinafter) were cultured using RPMI1640 + 10% FBS medium under 5% CO2 at 37°C to allow their growth to attain the cell number required for transplantation. The cells were suspended in physiological saline and subcutaneously inoculated to the back of male nude mice [Blab nu/nu, 8 weeks old, Charles River Laboratories Japan] such that the dose of 3 × 10^6 cells/100 µL per mouse was attained. Thereafter, the nude mice were kept for 7 days, and when the tumor volume reached 83.3 t 6.2 mm^3 (average ± SE, wherein SE indicates standard error; which provision is also applied hereinafter), administration of drugs were started. A total of 3 times of administration through the tail vein at intervals of 4 days were scheduled, and changes in the tumor volume and body weight with time were measured for 3 groups (n=7), that is, (1) control (untreated); (2) the CPT DMSO solution 7 mg/kg; and (3) PEG-pAsp-CPT 3 mg/kg (the dose is based on the amount of camptothecin (mg/kg/injection)). The major diameter (a mm) and the minor diameter (b mm) of each tumor were measured using an electronic caliper (Mitutoyo Corporation), and the tumor volume was calculated according to the following equation.
(§2) Tumor volume (mm^3) = a × b^2 /2 [formula] […]

[3] = Changes in body weight in PC-3 tumor-bearing animals, test 1; type: in vivo, male nude mice; conditions: CPT DMSO solution 7 mg/kg, tail vein, 3 times at intervals of 4 days, n=7
Protocol: as §1, §2

CC[C@@]1(O)C(=O)OCc2c1cc1n(c2=O)Cc2cc3ccccc3nc2-1 [CPT solution, camptothecin]
blood concentration [1]: decreased rapidly
tumor growth inhibition effect in comparison with the control group [2]: hardly observed
body weight decrease at maximum [3]: ≥ 10%
